The values below come from patent publication US4643994A, “Novel organic trithio oxides and method for the preparation thereof” (The Research Foundation of State University of New York, priority 1984, dated 1987).

Test [1] concerns blood platelets (platelet rich, citrated, human blood plasma). The test can be described thus: inhibition of platelet aggregation in platelet rich, citrated human blood plasma (aggregometer), agonist ADP or collagen. The format is cell-based. The conditions noted are these: for IC50: agonist ADP (10 μg), read-out: ID50 (the source's name).
For test [2] the test system is unchanged. The description is as above. The conditions noted are these: for IC50: agonist COLLAGEN (2 μg), read-out: ID50 (the source's name). The class given is cell-based. The text has this:
(§1) Various substances are known to cause blood platelets to aggregate which in turn can result in blood clots in the blood circulatory system of living animals. Certain other compounds are known to prevent blood platelet aggregation and accordingly are known as antithrombotic agents, while other compounds prevent clotting of aggregated platelets and are called anticoagulants. Both are used in the treatment of phlebitis, stroke, coronary thrombosis, and arteriosclerosis. In a typical test to determine antithrombotic activity, the suspected antithrombotic substance is mixed with a suspension of blood platelets, incubated for a few minutes, and then the suspension is treated with a known amount of a known agonist (agents inducing aggregation). The effectiveness of the suspected antithrombotic is compared to a control which has been treated with the agonist but which has not been treated with the antithrombotic and a quantitative measure of effectiveness is determined by ascertaining the concentration of suspected antithromobotic necessary to reduce by 50% the extent of platelet aggregation compared to the control. This measurement is termed the ID50 of the antithrombotic. Typical agonists include collagen and ADP (adenosine diphosphate).
Platelet rich, citrated, human blood plasma (250,000 platelets/μL) was prepared and divided into 0.45 ml aliquots for use in determining ID50 levels of the subject compounds. The aliquots were treated with various quantities of the compounds of the instant invention and thereafter were preincubated by maintaining in an aggregometer curvette for two (2) minutes at 37° C. with stirring (950 RPM). Control aliquots free of antithrombotic component, were maintained and subjected to each of the processing steps. Each aliquot was then treated with an agonist in this instance being an appropriate amount of ADP (10 μmole) or collagen (2 μg). Aggregation in each aliquot was monitored for a period of 3-5 minutes and percent aggregation was quantified by a dual channel aggregometer which ascertained percent aggregation by comparision against a control of light transmittance through the sample.

The next test has as its system S. Aureus bacteria. The test can be described thus: antibacterial activity against S. Aureus. The class given is cell-based.
The next test has as its system blood platelets. The test can be described thus: antithrombotic activity in combination with other known antithrombotics.
Description: as §1

Where two headings read alike, the source gives them in different places. Where only a bound is given, the exact number is not on record here.

For the compound `C=CCS(=O)(=O)C/C=C/SSC/C=C/CCC` [Aliquot 14], the IC50 in test [1] (Homo sapiens, Platelet) was greater than 400 µM.

For `C=CCSS/C=C/C[S+](C)[O-]` (stereo not shown) [Aliquot 4], the IC50 is greater than 400 µM in test [1] (Homo sapiens, Platelet) and 374 µM in test [2] (Homo sapiens, Platelet).

In the case of `C=CC[S+]([O-])CC=CSS(=O)(=O)CC=C` (stereo not shown) [Example 5, (E,Z)-4,5,9-trithiadodeca-1,6,11-triene 4,4,9-trioxide], the “growth of S. Aureus bacteria” value in the test with S. Aureus bacteria (0.25 m. molar concentration) is reported as “growth of the bacteria was inhibited”. In the test with S. Aureus bacteria (1.0 m. molar concentration), the “killing of S. Aureus bacteria” value is given as “killing of the bacteria”. For “(E,Z)-4,5,9-trithiadodeca-1,6,11-triene 9,9dioxide [Example 2]”, the IC50 in test [1] is 209 µM; in test [2], 214 µM. Turning to `C=CCS(=O)(=O)C/C=C/SS(=O)(=O)CC=C` [Aliquot 8], in test [2] (printed across the ADP (10 μg) and COLLAGEN (2 μg) columns), the “ID50 columns: result in words” value was “Causes Aggregation”. On to `CCCCC[C@H](O)/C=C/[C@@H]1[C@H]2C/C(=C/CCCC(=O)O)O[C@H]2C[C@H]1O` [prostacyclin], for which the “antithrombotic activity when combined with various compounds of the invention” value with blood platelets is “particularly enhanced antithrombotic activity”.

For `CSS/C=C/C[S+](C)[O-]` (stereo not shown) [Aliquot 5, (E) 2,3,7-trithiaocta-4-ene 7-oxide], the IC50 in test [1] (Homo sapiens, Platelet) is greater than 400 µM; in test [2] (Homo sapiens, Platelet) it was 332 µM. The matching figures for `C=CCSS/C=C/C[S+]([O-])CCCC(=O)OCC` (stereo not shown) [Aliquot 9]: 388 µM and 388 µM. Regarding `C=CCS(=O)(=O)C/C=C/SSCCC` [Aliquot 10], the IC50 in test [1] (Homo sapiens, Platelet) came out at 210 µM. The same measure, in the same setting: in the case of `C=CCS(=O)(=O)C/C=C/SSC/C=C\CCC` [Aliquot 13] it was 280 µM. For `C=CCS(=O)(=O)C/C=C/SS(=O)(=O)CC=C` [Aliquot 8, (E) 4,5,9-trithiadodeca-1,6,11-triene 4,4,9,9-tetraoxide], the “effect on platelet aggregation” value in test [1] (at levels of 40 μg/ml of ADP) is given as “appears to act as an agonist”.

Turning to `C=CCS(=O)(=O)C/C=C/SSCc1ccccc1` [Aliquot 12], the IC50 in test [1] (Homo sapiens, Platelet) worked out at 204 µM. As for `COc1ccc2c(c1)c(CC(=O)O)c(C)n2C(=O)c1ccc(Cl)cc1` [Indomethacin, indomethacin], the “antithrombotic activity when combined with various compounds of the invention” value in the test with blood platelets is “particularly enhanced antithrombotic activity”. For `C=CCS(=O)(=O)C/C=C/SSC/C=C/C` [Aliquot 11], the IC50 in test [1] (Homo sapiens, Platelet) worked out at 208 µM. As to “(E)-4,5,9-trithiadodeca-6,11-diene 9,9 dioxide [Aliquot 10]”, in test [1], the IC50 stood at 182 µM. Take `C=CCSSCCC[S+]([O-])CC=C` (stereo not shown) [Aliquot 3]: the IC50 in test [1] (Homo sapiens, Platelet) was greater than 400 µM; in test [2] (Homo sapiens, Platelet), greater than 400 µM.
